This note sets out measurements from patent US8663607B2, “Ferrate(VI)-containing compositions and methods of using ferrate(VI)” (Battelle Memorial Institute, priority 2007, dated 2014).

Series [1] in a line: Stain removal from calcium deficient hydroxyapatite disks (human tooth model), tea stain. The note with it: disk T: 1 mL of 3% hydrogen peroxide + 0.5 g sodium bicarbonate, applied twice, 5 minutes, water soak 45 minutes. On the procedure: Tea staining Solution: 200 mL of high-purity deionized (HPDI) water was heated to boiling in a 500-mL beaker. The beaker was removed from heat and 4 Lipton™ tea bags were added. The tea bags were allowed to soak for 5 minutes. The tea bags were pressed with a spatμLa upon removal to remove liquid.
Tea staining Procedure: A calcium-deficient hydroxyapatite (HAP) disk (Clarkson Chromatography Products) was placed into a 50-mL centrifuge tube with 10 mL of tea solution. The centrifuge tube was gently shaken by hand for 15 minutes. The tea solution was decanted and replaced with 10 mL of HPDI water and vortexed for 30 seconds. The water was decanted and replaced with 10 additional mL of HPDI water and vortexed for 30 seconds. The disk was removed with forceps and patted dry with a tissue. The disk was allowed to air dry at room temperature for at least one hour.
Oxidation resistant chelating buffer: 0.25M 1-Hydroxyethylidenediphosphonic acid (etridonic acid) (Dequest® 2010, Thermphos) (HEPA) was pH adjusted by microtitration with 10N NaOH. 1.28 g of 1-Hydroxyethylidenediphosphonic acid was to a 25-mL volumetric flask and brought to volume with HPDI water. The solution was transferred to a 50-mL beaker with a stir bar and pH adjusted using 10.04N NaOH, monitored with a calibrated pH meter. Aliquat 336® (Cognis) (also suitable is Aliquat 134®) (N-methyl-tri-(n-octyl)ammonium chloride), (N-methyl TOA) or “HEPA” chelating pH Buffer: 2.5-μL of N-methyl TOA was added to 5 mL of pH 7 HEPA buffer and sonicated for 1 minute. pH 7 Sodium Dodecyl Sulfate (SDS)/HEPA Buffer: 10 mg of SDS was added to 5 mL of pH 7 HEPA buffer and sonicated for 1 minute. pH 8 SDS/HEPA Buffer: 10 mg of SDS was added to 5 mL of pH 8 HEPA buffer and sonicated for 1 minute.
• A. A tea stained disk was placed into the bowl of the bowl of a watch glass and 100 μL of pH 7 HEPA buffer was pipetted onto the disk surface. 3.7 mg of potassium ferrate(VI) was added to the disk surface and mixed gently. […] The disk was rinsed at 10 minutes with HPDI water. […] 1 mL of pH 7 HEPA buffer was added followed by 9 mL of HPDI water. 9.7 mg of potassium ferrate(VI) was added. The tube was gently hand shaken for 10 minutes. The disk was removed and rinsed with HPDI water. […] 10 mg of potassium ferrate(VI) was added to 1 mL of pH 7 HEPA buffer in a 50 mL centrifuge tube. 9 mL HPDI water was added, and the solution was shaken for a few seconds followed by the addition of a tea stained HAP disk. The disk was removed at 10 minutes and rinsed with HPDI water. […] 1.3 mg of potassium ferrate(VI) added and mixed into the solution.

Series [2] is described as follows: Reactivity of ferrate(VI) in nonpolar media. It counts as physicochemical. Particulars: such as oils, solvents, waxes.

Regarding `OO` [hydrogen peroxide, reference compound], in series [1], the “L* (lightness/darkness)” value turned out to be 96.9, the “a* (blue/red)” value came to 0.4, the “appearance of disk after treatment” value is reported as “Much of the color was removed” and the “b* (yellow/green)” value turned out to be 0.3. Also, in series [1], the “reflectance of visible light at 450 nm” value came to 89.892, the “reflectance of visible light at 750 nm” value turned out to be 94.030 and the “ΔE (versus tea stain)” value came to 13.44.
As to ferrate(VI), in series [2], the “reactivity in nonpolar media” value is recorded as “unreactive”.
